The NIST ThermoML archive (doi:10.1016/j.jct.2017.03.006)

Assay: xn = mol fraction of the nth substance listed
Details: 333.15 K, Liquid, Vibrating tube method

Cc1ccc(C)c(C)c1 [1,2,4-trimethylbenzene] + CCC(C)O
mass density [kg/m3]
Details | x2 = 0 | x2 = 0.1 | x2 = 0.1989 | x2 = 0.3011 | x2 = 0.4002 | x2 = 0.5001 | x2 = 0.5997 | x2 = 0.6999 | x2 = 0.7999 | x2 = 0.9
90000 kPa | – | – | – | – | – | – | – | – | – | 841.4
100000 kPa | 902.5 | 897.2 | 891.7 | 885.8 | 880 | 874.7 | 867.9 | 860.9 | 853.9 | 846.4
110000 kPa | 906.9 | 901.8 | 896.2 | 890.5 | 884.7 | 879.4 | 872.6 | 865.7 | 858.7 | 851.2
120000 kPa | 911.1 | 906.1 | 900.7 | 894.8 | 889.1 | 883.9 | 877.1 | 870.2 | 863.2 | 855.7
130000 kPa | 915.1 | 910.3 | 904.9 | 899.1 | 893.4 | 888.2 | 881.5 | 874.5 | 867.5 | 860.1
140000 kPa | 919 | 914.3 | 909.1 | 903 | 897.5 | 892.2 | 885.9 | 878.5 | 871.5 | 864
